Measurements reported in patent US20150105252A1, “SUBSTITUTED PYRAZOLES AS HERBICIDES” (E I DU PONT DE NEMOURS AND COMPANY, priority 2013, published 2015).

Columns and labels:
corn = test: Test C postemergence; assay type: in vivo, Zea mays; settings: for Plant response rating (scale of 0 to 100 where 0 is no effect and 100 is complete control), Corn: 31 g ai/ha, visually evaluated after 13 to 15 days; for Corn plant response rating / Plant response rating, Corn: postemergence; for Corn plant response rating: 62 g ai/ha, scale 0 to 100
In short: (§1)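 Visual rating, 0–100 scale (0 no effect, 100 complete control), vs untreated controls after 13–15 d greenhouse. Pre: seeds in loam/sand, treated at sowing. Post: plants in peat-based mix, 1- to 4-leaf (2–18 cm). Solvent + surfactant formulation, non-phytotoxic.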

rice = test: Test C flooded paddy test; assay type: in vivo, Oryza sativa; settings: Flood
In short: (§2)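 Under a constant 3 cm flood, test compounds went directly into the paddy water. Following 13 to 15 days of greenhouse growth, treated species and controls were compared by eye.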

ragweed = test: Test C postemergence; assay type: in vivo, Ambrosia elation; settings: for Plant response rating (scale of 0 to 100 where 0 is no effect and 100 is complete control), Ragweed: 31 g ai/ha, visually evaluated after 13 to 15 days; for Ragweed plant response rating / Plant response rating, Ragweed: postemergence; for Ragweed plant response rating: 62 g ai/ha, scale 0 to 100
In short: as §1

barnyardgrass [1] = test: Test A preemergence; assay type: in vivo, Echinochloa crus-galli; settings: for Barnyardgrass plant response rating (0 to 100 scale, 0 is no effect, 100 is complete control): visual injury approx. 10 days after treatment
In short: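 Both timings tested concurrently in loam/sand soil: preemergence by directed soil spray, postemergence on plants of 2–10 cm at the one- to two-leaf stage. Greenhouse holding period was approximately 10 days before visual injury assessment (0–100, 0 = no effect).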

ducksalad = test: Test C flooded paddy test; assay type: in vivo, Heteranthera limosa; settings: Flood
In short: as §2

barnyardgrass [2] = test: Test C flooded paddy test; assay type: in vivo, Echinochloa crus-galli; settings: Flood
In short: as §2

sedge, umbrella = test: Test C flooded paddy test; assay type: in vivo, Cyperus difformis; settings: Flood
In short: as §2

[3] = 125 g ai/ha, scale 0 to 100, 0 no effect, 100 complete control
[4] = 31 g ai/ha, scale 0 to 100 (0 no effect, 100 complete control)
[5] = 62 g ai/ha, scale 0 to 100 (0 no effect, 100 complete control)
[6] = preemergence, 125 g ai/ha, visual injury, 0 to 100 scale, approx. 10 days
[7] = 250 g ai/ha, scale 0 to 100 (0 no effect, 100 complete control)
[8] = preemergence, 500 g ai/ha, visual injury after approx. 10 days, 0 to 100 scale (0 no effect, 100 complete control)
[9] = 125 g ai/ha, scale 0 to 100 (0 no effect, 100 complete control)

Row | SMILES | Plant response rating (scale of 0 to 100 where 0 is no effect and 100 is complete control), Corn (corn; Postemergence) | Corn plant response rating (corn) | Plant response rating, Corn (corn; [3]) | Plant response rating, Rice (rice; [4]) | Plant response rating, Rice (rice; [5]) | Plant response rating, Rice (rice; 125 g ai/ha, scale 0 to 100) | Plant response rating, Rice (rice; 250 g ai/ha, scale 0 to 100) | Plant response rating, Ragweed (ragweed; [3]) | Plant response rating, Ducksalad (ducksalad; [4]) | Plant response rating, Ducksalad (ducksalad; [5]) | Plant response rating, Ducksalad (ducksalad; 250 g ai/ha, scale 0 to 100) | Plant response rating, Barnyardgrass (barnyardgrass [2]; [4]) | Plant response rating, Barnyardgrass (barnyardgrass [2]; [5]) | Plant response rating, Barnyardgrass (barnyardgrass [2]; 250 g ai/ha, scale 0 to 100) | Plant response rating, Sedge, Umbrella (sedge, umbrella; [4]) | Plant response rating, Sedge, Umbrella (sedge, umbrella; [5]) | Plant response rating, Sedge, Umbrella (sedge, umbrella; 250 g ai/ha, scale 0 to 100) | Plant response rating, Corn (corn; [7]) | Plant response rating, Ragweed (ragweed; [7]) | Barnyardgrass plant response rating (barnyardgrass [1]; [8]) | other results
1 | CCONC(=O)c1cc(CC)n(Cc2ccnc(C(F)(F)F)c2)n1 [Compound 77] | 0 | 5 | 10 | 0 | 0 | 0 | 0 | 10 | 20 | 40 | 75 | 0 | 0 | 20 | 0 | 50 | 75 |  |  |  | Plant response rating (scale of 0 to 100), Corn (corn; Postemergence, 16 g ai/ha): 0; Plant response rating (scale of 0 to 100), Ragweed (ragweed; Postemergence, 16 g ai/ha): 5; Plant response rating (scale of 0 to 100 where 0 is no effect and 100 is complete control), Ragweed (ragweed; Postemergence): 5; Ragweed plant response rating (ragweed): 10; Barnyardgrass plant response rating (barnyardgrass [1]; Preemergence, 500 g ai/ha, 0 to 100 scale, 0 no effect, 100 complete control): 100; Barnyardgrass plant response rating (barnyardgrass [1]; [6]): 90; Plant response rating, Ducksalad (ducksalad; 125 g ai/ha, scale 0 to 100): 70; Plant response rating, Barnyardgrass (barnyardgrass [2]; 125 g ai/ha, scale 0 to 100): 20; Plant response rating, Sedge, Umbrella (sedge, umbrella; 125 g ai/ha, scale 0 to 100): 60
2 | CCCNC(=O)c1cc(CC)n(Cc2nc(C(F)(F)F)nn2C)n1 [Compound 109] | 5 | 10 | 15 | 0 | 0 | 20 | 35 |  | 30 | 40 | 85 | 0 | 0 | 40 | 30 | 60 | 85 | 15 | 80 | 100 | Barnyardgrass plant response rating (barnyardgrass [1]; [6]): 100; Plant response rating, Ducksalad (ducksalad; 125 g ai/ha, scale 0 to 100): 75; Plant response rating, Barnyardgrass (barnyardgrass [2]; 125 g ai/ha, scale 0 to 100): 35; Plant response rating, Sedge, Umbrella (sedge, umbrella; 125 g ai/ha, scale 0 to 100): 75
3 | CCCc1cc(C(=O)NCC(F)(F)F)nn1Cc1ccnc(OC(F)F)c1 [Compound 127] | 5 | 5 | 10 | 0 | 0 | 0 | 0 | 50 | 30 | 40 | 80 | 0 | 0 | 30 | 50 | 60 | 95 | 25 | 60 | 90 | Plant response rating (scale of 0 to 100 where 0 is no effect and 100 is complete control), Ragweed (ragweed; Postemergence): 30; Ragweed plant response rating (ragweed): 20; Barnyardgrass plant response rating (barnyardgrass [1]; [6]): 90; Plant response rating, Ducksalad (ducksalad; 125 g ai/ha, scale 0 to 100): 60; Plant response rating, Barnyardgrass (barnyardgrass [2]; 125 g ai/ha, scale 0 to 100): 15; Plant response rating, Sedge, Umbrella (sedge, umbrella; 125 g ai/ha, scale 0 to 100): 70
4 | CCOc1cc(C(=O)NCC(F)(F)F)nn1Cc1ccnc(OC(F)F)c1 [Compound 128] | 5 | 5 | 10 | 0 | 0 | 0 | 0 | 85 | 40 | 75 | 90 | 0 | 0 |  | 30 | 50 | 85 | 30 | 85 | 100 | Plant response rating (scale of 0 to 100 where 0 is no effect and 100 is complete control), Ragweed (ragweed; Postemergence): 50; Ragweed plant response rating (ragweed): 40; Barnyardgrass plant response rating (barnyardgrass [1]; [6]): 100; Plant response rating, Ducksalad (ducksalad; 125 g ai/ha, scale 0 to 100): 80; Plant response rating, Barnyardgrass (barnyardgrass [2]; 125 g ai/ha, scale 0 to 100): 35; Plant response rating, Sedge, Umbrella (sedge, umbrella; 125 g ai/ha, scale 0 to 100): 75
5 | CCCNC(=O)c1cc(CCF)n(Cc2ccnc(C(F)(F)F)c2)n1 [Compound 177] | 5 | 20 | 15 | 0 | 0 |  | 0 | 70 | 0 | 50 | 85 | 0 | 0 | 0 | 50 | 75 | 90 | 15 | 75 | 100 | Plant response rating, Rice (rice; [9]): 0; Barnyardgrass plant response rating (0 to 100 scale, 0 is no effect, 100 is complete control) (barnyardgrass [1]; preemergence, 125 g ai/ha): 100; Plant response rating, Ducksalad (ducksalad; [9]): 75; Plant response rating, Barnyardgrass (barnyardgrass [2]; [9]): 0; Plant response rating, Sedge, Umbrella (sedge, umbrella; [9]): 85
6 | CCCc1cc(C(=O)NC2CC2)nn1Cc1ccnc(OC(F)F)c1 [Compound 205] | 10 | 10 | 20 |  | 0 |  | 0 | 60 |  | 75 | 100 |  | 0 | 35 |  | 75 | 100 | 40 | 80 | 100 | Plant response rating, Rice (rice; [9]): 0; Plant response rating, Rice (rice; 500 g ai/ha, scale 0 to 100): 35; Barnyardgrass plant response rating (0 to 100 scale, 0 is no effect, 100 is complete control) (barnyardgrass [1]; preemergence, 125 g ai/ha): 90; Plant response rating, Ducksalad (ducksalad; [9]): 90; Plant response rating, Ducksalad (ducksalad; 500 g ai/ha, scale 0 to 100): 100; Plant response rating, Barnyardgrass (barnyardgrass [2]; [9]): 25; Plant response rating, Barnyardgrass (barnyardgrass [2]; 500 g ai/ha, scale 0 to 100): 60; Plant response rating, Sedge, Umbrella (sedge, umbrella; [9]): 95; Plant response rating, Sedge, Umbrella (sedge, umbrella; 500 g ai/ha, scale 0 to 100): 100
